Where “and” joins values, the source holds several entries; their conditions need not be identical. Equal values may be shown once.
Legend:
[1] = system: PANC1, PC-3, T-47D and MDA-MB-231 cancer cells; test: MTT anti-proliferative assay, four cancer cell lines together; assay type: cell-based; conditions: Homo sapiens; 72 h of incubation; read-out: IC50 values against PANC1, PC-3, T-47D and MDA-MB-231 (range over cell lines)
Procedure: The human cell-lines triple negative breast adenocarcinoma MDA-MB-231, Pancreas adenocarcinoma PANC1, ductal breast carcinoma T-47D and fibroblasts were preserved and expanded in DMEM medium, while the prostate adenocarcinoma PC-3 cells were cultured in RPMI-1640 growth medium. All growth media were supplemented with 10% heat-inactivated fetal bovine serum (FBS). Cells were maintained under standard culture conditions at 37 °C, 5% CO2 in a humidified incubator. […] Cells were counted using conventional hemocytometer and trypan blue dye method. […] In 96-well coated flat bottom microplates, 100 μL cell suspension of PANC1 or T-47D cells were seeded at a density of 7000 cell/well, and 6000 cell/well for MDA-MB-231, PC-3, or fibroblasts, and incubated under the same conditions at 37 °C. After 24 h, each well was treated with the intended drug concentration diluted in 200 μL fresh media after removal of the old 100-μL media. […] Colorimetric absorbance (OD) was measured at 570 nm wavelength using 96-well plate reader (Tecan-Sunrise, Männedorf, Switzerland). […] The safety index for the compounds with specified IC50 values was evaluated via determining their IC50 values against normal Fibroblast cells. […] IC50 values were calculated using nonlinear regression of the dose–response curves using GraphPad Prism software 7.03.

PC-3 cells = test: MTT cytotoxicity/anti-proliferation assay, PC-3; assay type: cell-based; conditions: Homo sapiens; for IC50: PC-3, 72 h; for inhibition at 25 µM: PC-3, 25 µM; for inhibition at 25 µM / inhibition at 50 µM: 72 h; for inhibition at 50 µM: PC-3, 50 µM
Procedure: (§1) The human cell-lines triple negative breast adenocarcinoma MDA-MB-231, Pancreas adenocarcinoma PANC1, ductal breast carcinoma T-47D and fibroblasts were preserved and expanded in DMEM medium, while the prostate adenocarcinoma PC-3 cells were cultured in RPMI-1640 growth medium. All growth media were supplemented with 10% heat-inactivated fetal bovine serum (FBS). Cells were maintained under standard culture conditions at 37 °C, 5% CO2 in a humidified incubator. At 80% confluency, cells were washed with 5 mL phosphate buffer saline (1X PBS), then incubated for 4 min with 2–3 mL Trypsin-EDTA 0.25% in order to obtain suspended cells and collect them in a known volume of fresh media for cell count. Cells were counted using conventional hemocytometer and trypan blue dye method.
(§2) The five potent hits that have shown anti-Aurora-A Kinase inhibition percentages above 51% at 10 μM upon conducting the kinase enzyme Inhibition assay (Table 5) were further validated using MTT cytotoxicity Assay. This assay includes 3-(4,5-Dimethylthiazol-2-yl)-2,5-diphenyl tetrazolium bromide (MTT) dye, which is a yellowish tetrazole reduced by viable cells into formazan purple color, which detects the normal mitochondrial role in viable cells. In 96-well coated flat bottom microplates, 100 μL cell suspension of PANC1 or T-47D cells were seeded at a density of 7000 cell/well, and 6000 cell/well for MDA-MB-231, PC-3, or fibroblasts, and incubated under the same conditions at 37 °C. After 24 h, each well was treated with the intended drug concentration diluted in 200 μL fresh media after removal of the old 100-μL media. After 72 h incubation, drug-containing media was aspirated and on each well 100 μL phenol-red free media and 15-μL MTT solution (5 mg/mL (wt/vol) PBS). After 3 h of dark incubation at 37 °C, MTT and media were carefully withdrawn from each well, and 200 μL/well DMSO were added. Colorimetric absorbance (OD) was measured at 570 nm wavelength using 96-well plate reader (Tecan-Sunrise, Männedorf, Switzerland).
(§3) The five compounds were prepared in a stock concentrate of 10 mM using cell culture grade DMSO to be utilized in MTT assay. The cytotoxicity of each compound was initially screened on cancer cell-lines at two concentrations: 50 μM and 25 μM in duplicates. […] The safety index for the compounds with specified IC50 values was evaluated via determining their IC50 values against normal Fibroblast cells. It is noteworthy to mention that DMSO concentration was constant on all the wells (i.e., (0.5% v/v or 1 μL/200 μL) per well), for the treated and the control ones. IC50 values were calculated using nonlinear regression of the dose–response curves using GraphPad Prism software 7.03.

Aurora-A kinase = molecular target: T1, Aurora-A kinase (Homo sapiens, UniProt O14965); test: FRET-based Z'-LYTE kinase enzyme inhibition assay; assay type: biochemical
T1 construct: purchased Invitrogen (Carlsbad, CA, USA)
T1 sequence (O14965 1-403): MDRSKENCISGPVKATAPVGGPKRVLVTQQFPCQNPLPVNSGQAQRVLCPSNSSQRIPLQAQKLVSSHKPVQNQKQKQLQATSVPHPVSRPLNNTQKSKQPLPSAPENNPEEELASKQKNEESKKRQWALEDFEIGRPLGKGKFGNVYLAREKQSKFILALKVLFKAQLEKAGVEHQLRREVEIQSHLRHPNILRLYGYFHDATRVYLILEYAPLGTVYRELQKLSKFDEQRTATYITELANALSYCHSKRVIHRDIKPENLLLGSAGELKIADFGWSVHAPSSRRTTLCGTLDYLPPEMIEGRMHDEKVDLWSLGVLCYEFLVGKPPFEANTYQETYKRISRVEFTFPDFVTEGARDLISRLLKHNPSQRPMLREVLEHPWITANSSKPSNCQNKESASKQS
Procedure: This bioassay was conducted using Z′-LYTE® kinase assay (Invitrogen, Carlsbad, CA, USA) [68, 69]. This biochemical assay depends on fluorescence emission as detection method utilizing a synthetic fluorescence resonance energy transfer (FRET) peptide with two fluorophores: coumarin that work as donor and fluorescein as acceptor [69]. Each hit or compound was dissolved in DMSO to form 10 mM stock solution. Hits were screened at 10 μM concentration. The bioassay was performed in black 384-well plate. For each assay, 100 nL of tested compound stock solution (10 mM) was mixed with 2.4 μL kinase buffer, 5 μL (peptide substrate/Aurora-A Kinase) mixture, and 2.5 μL ATP solution.
The tests were conducted in duplicates.

Fibroblasts = test: MTT cytotoxicity assay on normal fibroblasts (safety index); assay type: cell-based; conditions: Homo sapiens, Fibroblast, 72 h
Procedure: as §1, §2, §3

PANC1 cells = test: MTT cytotoxicity/anti-proliferation assay, PANC1; assay type: cell-based, human; conditions: for IC50: Panc1, 72 h; for inhibition at 25 µM / inhibition at 50 µM: PANC-1, 72 h; for inhibition at 25 µM: Panc1, 25 µM; for inhibition at 50 µM: Panc1, 50 µM
Procedure: as §1, §2, §3

MDA-MB-231 cells = test: MTT cytotoxicity/anti-proliferation assay, MDA-MB-231; assay type: cell-based, human; conditions: for IC50: MDA-MB-231, 72 h; for inhibition at 25 µM: MDA-MB-231, 25 µM; for inhibition at 25 µM / inhibition at 50 µM: 72 h; for inhibition at 50 µM: MDA-MB-231, 50 µM
Procedure: as §1, §2, §3

T-47D cells = test: MTT cytotoxicity/anti-proliferation assay, T-47D; assay type: cell-based; conditions: Homo sapiens, T47D, 72 h
Procedure: as §1, §2, §3

[2] = system: xenograft models of various cancer types; design: method as in PMID 19369091, PMID 14981513, PMID 18160664; conditions: cited from earlier work

COc1ccc(C(=O)C2=NON3O[C@@]23C(=O)c2ccc(OC)cc2)cc1 (stereo partly shown) [Hit 85]
IC50 [1]: 3.5 to 11 µM
IC50 (PC-3 cells): 8.2 ± 1.4 µM
inhibition at 25 µM (PC-3 cells): 77 ± 0.007%
inhibition at 50 µM (PC-3 cells): 87.3 ± 0.003%
IC50 (Aurora-A kinase; IC50, 0.1–100 μM, duplicates, nonlinear regression): 4.29 µM and 4.3 µM
Hill Slope (Aurora-A kinase; dose-response curve, GraphPad Prism): 1.70
inhibition at 10 µM (Aurora-A kinase; read-out: % Inhibition at 10 µM): 56%
inhibition at 25 µM (Fibroblasts): 45.4 ± 0.05%
inhibition at 50 µM (Fibroblasts): 83.4 ± 0.01%
IC50 (Fibroblasts): 27.5 ± 1.5 µM
IC50 (PANC1 cells; Homo sapiens, PANC-1, 72 h): 3.5 µM
inhibition at 25 µM (PANC1 cells; Homo sapiens): 92.97 ± 0.004%
inhibition at 50 µM (PANC1 cells; Homo sapiens): 94.1 ± 0.001%
IC50 (PANC1 cells): 3.54 ± 0.11 µM
IC50 (MDA-MB-231 cells; Homo sapiens): 11 ± 0.43 µM
inhibition at 25 µM (MDA-MB-231 cells; Homo sapiens): 82.3 ± 0.006%
inhibition at 50 µM (MDA-MB-231 cells; Homo sapiens): 87.7 ± 0.001%
inhibition at 25 µM (T-47D cells): 84.6 ± 0.002%
inhibition at 50 µM (T-47D cells): 86 ± 0.002%
IC50 (T-47D cells): 8.8 ± 0.74 µM

Cc1cc(Nc2cc(N3CCN(C)CC3)nc(Sc3ccc(NC(=O)C4CC4)cc3)n2)[nH]n1 [Tozasertib/(VX-680), Tozasertib, reference compound]
reduced the tumor size [2]: 22–98%
IC50 (PC-3 cells): 21.4 ± 1.6 µM
inhibition at 25 µM (PC-3 cells): 49.5 ± 0.006%
inhibition at 50 µM (PC-3 cells): 68.7 ± 0.011%
inhibition at 25 µM (Fibroblasts): 85 ± 0.006%
inhibition at 50 µM (Fibroblasts): 89 ± 0.005%
IC50 (Fibroblasts): 9.2 ± 0.6 µM
IC50 (PANC1 cells; Homo sapiens, PANC-1, 72 h): ~7.6 µM
inhibition at 25 µM (PANC1 cells; Homo sapiens): 80.9 ± 0.005%
inhibition at 50 µM (PANC1 cells; Homo sapiens): 89.3 ± 0.015%
IC50 (MDA-MB-231 cells; Homo sapiens): ~7.6 µM
inhibition at 25 µM (MDA-MB-231 cells; Homo sapiens): 81 ± 0.008%
inhibition at 50 µM (MDA-MB-231 cells; Homo sapiens): 87 ± 0.007%
IC50 (MDA-MB-231 cells): 7.7 ± 0.65 µM
inhibition at 25 µM (T-47D cells): 53.4 ± 0.02%
inhibition at 50 µM (T-47D cells): 80.9 ± 0.01%
IC50 (T-47D cells): 17.9 ± 1.64 µM

Reference: paper PMC7766225, “Structure-Based Discovery and Bioactivity Evaluation of Novel Aurora-A Kinase Inhibitors as Anticancer Agents via Docking-Based Comparative Intermolecular Contacts Analysis (dbCICA)” (Molecules, 2020)
